We go through two compounds from PMC7271948, “A baculoviral system for the production of human β-glucocerebrosidase enables atomic resolution analysis” (Acta Crystallographica. Section D, Structural Biology, 2020).

The target of assay [1] is T1, β-glucocerebrosidase (GBA) (Homo sapiens, UniProt P04062).
T1 construct: gene GBA1
T1 sequence (P04062 40-536): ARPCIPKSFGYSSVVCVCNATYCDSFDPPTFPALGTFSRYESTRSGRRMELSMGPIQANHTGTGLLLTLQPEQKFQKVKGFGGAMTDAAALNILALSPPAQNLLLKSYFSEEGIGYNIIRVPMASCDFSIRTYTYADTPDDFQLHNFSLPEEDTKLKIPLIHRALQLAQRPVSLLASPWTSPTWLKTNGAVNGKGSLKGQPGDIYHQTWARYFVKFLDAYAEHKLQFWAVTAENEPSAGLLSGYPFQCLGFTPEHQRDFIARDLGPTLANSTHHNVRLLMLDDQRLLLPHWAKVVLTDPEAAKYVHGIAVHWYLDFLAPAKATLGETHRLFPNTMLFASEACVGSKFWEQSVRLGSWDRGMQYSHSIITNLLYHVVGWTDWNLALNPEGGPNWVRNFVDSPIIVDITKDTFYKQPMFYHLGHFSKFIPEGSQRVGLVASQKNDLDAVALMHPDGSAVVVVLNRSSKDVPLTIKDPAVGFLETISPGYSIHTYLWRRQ
Kind of assay: X-ray crystal structure at […] Å, crystals soaked with 2F-DNPGlc. Type of assay: binding.

Assay [2] deals with T1, β-glucocerebrosidase (GBA). In words: X-ray crystal structure at […] Å; IC50 against 4-MU-Glc hydrolysis at pH […]. Type of assay: biochemical.

As for `O=[N+]([O-])c1ccc(O[C@@H]2O[C@H](CO)[C@@H](O)[C@H](O)[C@H]2F)c([N+](=O)[O-])c1` [2F-DNPGlc, 2,4-dinitrophenyl-2-deoxy-2-fluoro-β-D-glucopyranoside], the “X-ray crystal structure at 1.41 Å, crystals soaked with 2F-DNPGlc” value in assay [1] is given as “showing unambiguous electron density for covalent binding of the 2-deoxy-2-fluoroglucose moiety to the catalytic nucleophile”.
As for `OCC(CO)(CO)NCCCNC(CO)(CO)CO` [BTP, bis-Tris propane], the half-inhibitory concentration (IC50) – broadly, the concentration that gives 50% inhibition – in assay [2] stood at 4.31 ± 0.42 mM.
